The record followed here is patent US11578079B2, “SUMO inhibitor compounds and uses thereof” (CITY OF HOPE, priority 2018, dated 2023).

One assay concerns c-Myc. Briefly: c-Myc activity (Table I, biological activities). Set-up: key: + (less active); ++ (active); +++ (most active).
A further assay deals with T1, SUMO (Homo sapiens, UniProt Q9UBT2).
T1 sequence (Q9UBT2 1-640): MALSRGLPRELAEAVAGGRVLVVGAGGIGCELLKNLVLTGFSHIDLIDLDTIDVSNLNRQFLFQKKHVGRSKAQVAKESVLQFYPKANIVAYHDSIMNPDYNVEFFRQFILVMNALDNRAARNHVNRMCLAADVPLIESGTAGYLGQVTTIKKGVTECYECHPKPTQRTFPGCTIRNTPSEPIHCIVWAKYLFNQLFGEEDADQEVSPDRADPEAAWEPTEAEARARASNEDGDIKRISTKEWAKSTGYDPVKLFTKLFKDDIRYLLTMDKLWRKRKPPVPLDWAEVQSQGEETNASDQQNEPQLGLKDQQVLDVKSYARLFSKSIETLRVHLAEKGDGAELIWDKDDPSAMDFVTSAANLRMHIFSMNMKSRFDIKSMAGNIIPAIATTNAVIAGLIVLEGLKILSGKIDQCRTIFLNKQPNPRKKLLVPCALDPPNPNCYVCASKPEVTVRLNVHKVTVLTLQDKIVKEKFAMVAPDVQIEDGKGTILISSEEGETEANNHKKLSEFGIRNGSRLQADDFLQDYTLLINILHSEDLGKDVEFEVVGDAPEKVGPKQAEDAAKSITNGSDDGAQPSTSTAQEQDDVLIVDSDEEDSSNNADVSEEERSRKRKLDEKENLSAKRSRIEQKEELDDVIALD
T1 sequence (Q9UBE0 1-346 partner): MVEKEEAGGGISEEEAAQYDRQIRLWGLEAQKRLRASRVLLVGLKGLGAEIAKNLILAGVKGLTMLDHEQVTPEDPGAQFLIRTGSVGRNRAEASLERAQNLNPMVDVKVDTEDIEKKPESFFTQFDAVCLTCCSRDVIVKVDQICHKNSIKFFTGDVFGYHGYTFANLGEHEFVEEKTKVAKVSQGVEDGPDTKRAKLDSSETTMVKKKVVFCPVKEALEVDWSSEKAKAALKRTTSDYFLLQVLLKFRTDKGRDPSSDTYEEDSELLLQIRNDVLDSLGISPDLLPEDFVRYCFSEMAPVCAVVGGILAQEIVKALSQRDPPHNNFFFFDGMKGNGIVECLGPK
Kind of assay: SUMO activity (Table I, biological activities). The class given is biochemical. On the set-up: key: + (less active); ++ (active); +++ (most active).

Turning to `COC(=O)C1=C(C(=O)NNc2ccccc2)C2C=CC1(C(Cc1ccccc1)Nc1ccccc1)O2` (centres unmarked) [Compound 200], the c-Myc result in the assay with c-Myc is given as “++”. Further, the SUMO entry at SUMO is reported as “++”.
Take `COC(=O)C1=C(C(=O)Nc2ccccc2)C2C=CC1(C(Cc1ccccc1)Nc1ccccc1)O2` (centres unmarked) [Compound 163]: the c-Myc entry in the assay on c-Myc is on record as “+”. In addition, on SUMO, the SUMO entry is “++”.
Consider `CCOC(=O)C1=C(C(F)(F)F)C2(C(Cc3ccccc3)Nc3ccccc3)C=CC1O2` (centres unmarked) [Compound 298], for which, in the assay with c-Myc, the c-Myc entry was “+”. In addition, at SUMO, the SUMO entry is listed as “++”.
For `CC(=O)C1=CC2(C(Cc3ccccc3)Nc3ccccc3)C=CC1(C)O2` (centres unmarked) [Compound 527], the c-Myc result in the assay with c-Myc is recorded as “+”. Further, on SUMO, the SUMO result was “+”.
For the molecule `CCOC(=O)C1=C(C(=O)Nc2ccc(C)c(F)c2)C2C=CC1(C(Nc1ccc(C)cc1)c1ccc(CN3CCOCC3)cc1)O2` (centres unmarked) [Compound 613], in the assay on c-Myc, the c-Myc entry is on record as “+”. The SUMO entry on SUMO is “+”.
In the case of `CCN(CC)CCNC(=O)C1=C(C(=O)OC)C2C=CC1(C(Cc1ccccc1)Nc1cc(F)cc(F)c1)O2` (centres unmarked) [Compound 402], the c-Myc result with c-Myc is reported as “+”. Further, the SUMO result at SUMO was “++”.
Consider `COC(=O)C1=C(C(=O)NC2CCN(C(=O)C3CCN(C)CC3)CC2)C2C=CC1(C(Cc1ccccc1)Nc1ccccc1)O2` (centres unmarked) [Compound 378], for which the c-Myc result in the assay with c-Myc is “+”. Moreover, the SUMO entry on SUMO is “++”.
For the molecule `COC(=O)C1=C(C(=O)NC2CCN(C)C2)C2C=CC1(C(Cc1ccccc1)Nc1cc(F)cc(F)c1)O2` (centres unmarked) [Compound 256], the c-Myc entry in the assay with c-Myc is given as “+”. Besides, the SUMO result on SUMO is given as “++”.
`COC(=O)C1=C(C(=O)Nc2ccccc2)C2C=CC1(C(Cc1ccccc1)Nc1cccc(CO)c1)O2` (centres unmarked) [Compound 528]: in the assay with c-Myc, the c-Myc entry is given as “++”. The SUMO entry at SUMO was “++”.
In the case of `CCOC(=O)C1=C(C(=O)Nc2ccc(C)nc2)C2C=CC1(C(Nc1ccccc1)c1ccc(CN3CCOCC3)cc1)O2` (centres unmarked) [Compound 573], in the assay with c-Myc, the c-Myc result is recorded as “+”. The SUMO result at SUMO is “+”.
As for `COC(=O)C1=C(C(=O)NC2CCN(C(C)=O)CC2)C2C=CC1(C(Cc1ccccc1)Nc1ccccc1)O2` (centres unmarked) [Compound 287], the c-Myc entry in the assay on c-Myc was “++”. In addition, the SUMO entry at SUMO is “++”.
In the case of `COC(=O)C1=C(C(=O)NC2CCN(Cc3ccccc3)CC2)C2C=CC1(C(Cc1ccccc1)Nc1ccccc1)O2` (centres unmarked) [Compound 288], the c-Myc result in the assay with c-Myc is reported as “++”. Moreover, at SUMO, the SUMO entry was “++”.
`CCOC(=O)C1=C(C(=O)Nc2ccc(C)c(F)c2)C2(C)C=CC1(C(Nc1ccccc1)c1ccc(CN3CCOCC3)cc1)O2` (centres unmarked) [Compound 579]: the c-Myc entry in the assay on c-Myc is “+”. For the same molecule, the SUMO entry on SUMO is reported as “+”.
As for `COC(=O)C1=C(C(=O)Nc2ccc(OCCN3CCCC3)cc2)C2C=CC1(C(Cc1ccccc1)Nc1ccccc1)O2` (centres unmarked) [Compound 505], the c-Myc result in the assay on c-Myc is listed as “+”. Also, the SUMO result on SUMO is “++”.
Turning to `CCOC(=O)C1=C(C(=O)NCCN(CC)CC)C2C=CC1(C(Cc1ccccc1)Nc1c(F)cccc1F)O2` (centres unmarked) [Compound 434], the c-Myc result in the assay with c-Myc is “++”. Besides, the SUMO entry at SUMO is on record as “++”.
Consider `COC(=O)C1=C(C(N)=O)C2C=CC1(C(Cc1ccccc1)Nc1ccccc1)O2` (centres unmarked) [Compound 274], for which the c-Myc entry in the assay with c-Myc is given as “++”. Also, the SUMO entry on SUMO is “+++”.
Consider `COC(=O)C1=C(C(=O)Nc2ccc(OC)cc2)C2C=CC1(C(Cc1ccccc1)Nc1cccc(Oc3ccccc3)c1)O2` (centres unmarked) [Compound 321], for which the c-Myc result in the assay with c-Myc was “+”. Further, the SUMO entry on SUMO is listed as “+++”.
For `COC(=O)C1=C(C(=O)OC)C2(C(Cc3ccccc3)Nc3ccc(F)cc3F)C=CC1O2` (centres unmarked) [Compound 171], the c-Myc result in the assay with c-Myc is “++”. Also, at SUMO, the SUMO entry is listed as “++”.
Consider `COC(=O)C1=C(C(=O)NC2CCN(C(=O)c3cccc(F)c3)CC2)C2C=CC1(C(Cc1ccccc1)Nc1ccccc1)O2` (centres unmarked) [Compound 386], for which, in the assay on c-Myc, the c-Myc entry is on record as “+”. In addition, the SUMO result on SUMO is on record as “++”.
Consider `CCOC(=O)C1=C(C(=O)Nc2ccc(C)c(F)c2)C2C=CC1(C(Nc1ccc(OC)cc1)c1ccc(CN3CCOCC3)cc1)O2` (centres unmarked) [Compound 621], for which, in the assay with c-Myc, the c-Myc entry is listed as “+”. Also, the SUMO result at SUMO is on record as “+”.
Turning to `CCOC(=O)C1=C(C(=O)Nc2ccc(F)cc2)C2C=CC1(C(Nc1ccccc1)c1ccc(CN3CCOCC3)cc1)O2` (centres unmarked) [Compound 601], the c-Myc result in the assay with c-Myc is “+”. In addition, the SUMO entry at SUMO is on record as “++”.
`COC(=O)C1=C(C(=O)NC2CCN(CCO)CC2)C2C=CC1(C(Cc1ccccc1)Nc1ccccc1)O2` (centres unmarked) [Compound 279]: the c-Myc entry in the assay with c-Myc was “++”. At SUMO, the SUMO result is recorded as “+++”.
In the case of `COC(=O)C1=C(C(=O)NNc2cc(C(F)(F)F)cc(C(F)(F)F)c2)C2C=CC1(C(Cc1ccccc1)Nc1cc(F)cc(F)c1)O2` (centres unmarked) [Compound 317], the c-Myc result in the assay with c-Myc is on record as “+”. On SUMO, the SUMO result is recorded as “+”.
Take `COC(=O)C1=C(C(=O)NCCN(C)C)C2C=CC1(C(Cc1ccccc1)Nc1c(F)cccc1F)O2` (centres unmarked) [Compound 432]: the c-Myc result in the assay with c-Myc is reported as “+”. For the same molecule, the SUMO entry on SUMO is “++”.
Taken in the same sequence, the figures for `COC(=O)C1=C(C(=O)NCCCN(C)C)C2C=CC1(C(Cc1ccccc1)Nc1ccccc1)O2` (centres unmarked) [Compound 389] were “+” and “++”.
The corresponding values for `COC(=O)C1=C(C(=O)NC2CCN(C)C2)C2C=CC1(C(Cc1ccccc1)Nc1cc(F)cc(Cl)c1)O2` (centres unmarked) [Compound 238] are “++” and “+++”.
In the case of `COC(=O)C1=C(C(N)=O)C2C=CC1(C(Cc1ccccc1)Nc1ccccc1)O2` (centres unmarked) [Compound 151], the c-Myc entry in the assay on c-Myc is on record as “+”. Further, the SUMO entry at SUMO was “++”.
The corresponding values for `COC(=O)C1=C(C(=O)Nc2ccncc2)C2C=CC1(C(Cc1ccccc1)Nc1cc(F)cc(Cl)c1)O2` (centres unmarked) [Compound 220] are “+” and “++”.
Turning to `CCOC(=O)C1=C(C(=O)Nc2ccc(C)c(F)c2)C2C=CC1(C(Nc1ccc(C#N)cc1)c1ccc(CN3CCOCC3)cc1)O2` (centres unmarked) [Compound 612], the c-Myc entry with c-Myc is “+”. In addition, the SUMO entry on SUMO is listed as “+”.
On to `COC(=O)C1=C(C(=O)Nc2ccc(OCCN3CCN(C)CC3)cc2)C2C=CC1(C(Cc1ccccc1)Nc1ccccc1)O2` (centres unmarked) [Compound 501], for which the c-Myc entry with c-Myc is reported as “+”. In addition, the SUMO entry at SUMO was “+++”.
Take `COC(=O)C1=C(C(=O)Nc2cccnc2)C2C=CC1(C(Cc1ccccc1)Nc1ccccc1)O2` (centres unmarked) [Compound 223]: the c-Myc entry with c-Myc was “+”. At SUMO, the SUMO entry is listed as “++”.
Taken in the same sequence, the figures for `CCOC(=O)C1=C(C(=O)Nc2ccccc2OC)C2C=CC1(C(Nc1ccccc1)c1ccc(CN3CCOCC3)cc1)O2` (centres unmarked) [Compound 597] were “++” and “+”.
The corresponding values for `COC(=O)C1=C(C(=O)Nc2ccc(OC)cc2)C2C=CC1(C(Cc1ccccc1)Nc1cc(F)cc(F)c1)O2` (centres unmarked) [Compound 204] are “+” and “+++”.
Taken in the same sequence, the figures for `COC(=O)C1=C(C(=O)Nc2ccccc2C)C2C=CC1(C(Cc1ccccc1)Nc1ccccc1)O2` (centres unmarked) [Compound 360] were “+” and “++”.
With `CCOc1cccc(NC(Cc2ccccc2)C23C=CC(O2)C(C(=O)NC2CCN(C)C2)=C3C(=O)OC)c1` (centres unmarked) [Compound 248], the c-Myc result in the assay with c-Myc was “++”. Moreover, the SUMO result on SUMO was “+++”.
With `COC(=O)C1=C(C(=O)NC2CCN(Cc3ccccc3)CC2)C2CCC1(C(Cc1ccccc1)Nc1ccccc1)O2` (centres unmarked) [Compound 369], in the assay on c-Myc, the c-Myc result is given as “+”. Further, on SUMO, the SUMO entry is “+”.
On to `CCOC(=O)C1=C(C(=O)Nc2ccccc2F)C2C=CC1(C(Nc1ccccc1)c1ccc(CN3CCOCC3)cc1)O2` (centres unmarked) [Compound 595], for which the c-Myc entry in the assay with c-Myc is “+”. For the same molecule, at SUMO, the SUMO entry is listed as “++”.
Consider `COCCN1CCC(NC(=O)C2=C(C(=O)OC)C3(C(Cc4ccccc4)Nc4ccccc4)CCC2O3)CC1` (centres unmarked) [Compound 367], for which, in the assay with c-Myc, the c-Myc result is reported as “+”. The SUMO entry at SUMO is listed as “+”.
For `CCN(CC)CCNC(=O)C1=C(C(=O)OC)C2(C(Cc3ccccc3)Nc3ccc(F)cc3F)C=CC1O2` (centres unmarked) [Compound 410], in the assay with c-Myc, the c-Myc entry is listed as “+”. Moreover, on SUMO, the SUMO result is on record as “++”.
The corresponding values for `CCN(CC)CCNC(=O)C1=C(C(=O)OC)C2(C(Cc3ccccc3)Nc3cccc(F)c3)C=CC1O2` (centres unmarked) [Compound 421] are “++” and “++”.
The corresponding values for `COC(=O)C1=C(C(=O)Nc2cnc(C)nc2)C2C=CC1(C(Cc1ccccc1)Oc1ccccc1)O2` (centres unmarked) [Compound 480] are “+” and “++”.
In the case of `COC(=O)C1=C(C(=O)NC2CCN(C(=O)c3ccsc3)CC2)C2C=CC1(C(Cc1ccccc1)Nc1ccccc1)O2` (centres unmarked) [Compound 383], the c-Myc result in the assay with c-Myc is listed as “+”. Besides, on SUMO, the SUMO result was “++”.
Taken in the same sequence, the figures for `COC(=O)C1=C(C(=O)NCCN(C)C)C2C=CC1(C(Cc1ccccc1)Nc1cc(F)cc(F)c1)O2` (centres unmarked) [Compound 399] were “+” and “++”.
